A value given as a limit tells only on which side of the number the result lay.

This is an account of results in ChEMBL document CHEMBL5465560, “Selectivity Literature for EUbOPEN Chemogenomic Library” (2024).

Assay [1] deals with T1, Serine/threonine-protein kinase ULK3 (Homo sapiens) (UniProt Q6PHR2).
T1 sequence (whole entry): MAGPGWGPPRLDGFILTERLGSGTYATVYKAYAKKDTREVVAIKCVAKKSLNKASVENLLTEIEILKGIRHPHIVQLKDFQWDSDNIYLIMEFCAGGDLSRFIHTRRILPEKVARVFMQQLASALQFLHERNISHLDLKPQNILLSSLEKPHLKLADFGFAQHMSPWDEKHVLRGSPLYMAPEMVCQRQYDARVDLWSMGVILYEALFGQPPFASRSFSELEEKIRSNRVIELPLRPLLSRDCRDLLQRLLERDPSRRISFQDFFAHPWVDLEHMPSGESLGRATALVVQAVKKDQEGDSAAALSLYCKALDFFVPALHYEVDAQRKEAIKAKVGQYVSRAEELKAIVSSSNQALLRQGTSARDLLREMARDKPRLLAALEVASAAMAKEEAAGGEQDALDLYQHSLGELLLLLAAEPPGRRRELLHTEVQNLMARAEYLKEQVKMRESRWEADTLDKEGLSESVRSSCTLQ
Nature of the assay: Selectivity interaction (Ambit KINOMEscan and KiNATiv profiling in Jurkat cells) EUB0000090b ULK3. Type of assay: cell-based. As to conditions: at 1 µM.

Assay [2] addresses ALK tyrosine kinase receptor (Homo sapiens, UniProt Q9UM73). Briefly: Selectivity interaction (KinomeScan (DiscoverX)) EUB0000607a ALK. To be noted: at 10 µM.
In assay [3] the target is Amine oxidase [flavin-containing] A (Homo sapiens, UniProt P21397). Nature of the assay: Selectivity interaction (Monoamine Oxidase A, human recombinant baculovirus ) EUB0000877a MAOA.
Assay [4] deals with Phosphatidylinositol 4-kinase alpha (Homo sapiens, UniProt P42356). Briefly: Selectivity interaction (Kinase panel (Invitrogen)) EUB0000639a PI4KA. As to conditions: at 200 nM.
The test system of assay [5] is Tyrosine-protein kinase ABL1 (Homo sapiens), P00519 [T315I]. Nature of the assay: (§1) Selectivity interaction (Millipore kinase profiler) EUB0000124b ABL1. As to conditions: at 10 µM.
Assay [6] deals with Tyrosine-protein kinase ABL1 (Homo sapiens, UniProt P00519). The assay is described as §1. To be noted: at 10 µM.
For assay [7], the target named is Eukaryotic elongation factor 2 kinase (Homo sapiens, UniProt O00418).
For assay [8], the target named is T2, Mitogen-activated protein kinase kinase kinase 7 (Homo sapiens) (UniProt O43318).
T2 sequence (whole entry): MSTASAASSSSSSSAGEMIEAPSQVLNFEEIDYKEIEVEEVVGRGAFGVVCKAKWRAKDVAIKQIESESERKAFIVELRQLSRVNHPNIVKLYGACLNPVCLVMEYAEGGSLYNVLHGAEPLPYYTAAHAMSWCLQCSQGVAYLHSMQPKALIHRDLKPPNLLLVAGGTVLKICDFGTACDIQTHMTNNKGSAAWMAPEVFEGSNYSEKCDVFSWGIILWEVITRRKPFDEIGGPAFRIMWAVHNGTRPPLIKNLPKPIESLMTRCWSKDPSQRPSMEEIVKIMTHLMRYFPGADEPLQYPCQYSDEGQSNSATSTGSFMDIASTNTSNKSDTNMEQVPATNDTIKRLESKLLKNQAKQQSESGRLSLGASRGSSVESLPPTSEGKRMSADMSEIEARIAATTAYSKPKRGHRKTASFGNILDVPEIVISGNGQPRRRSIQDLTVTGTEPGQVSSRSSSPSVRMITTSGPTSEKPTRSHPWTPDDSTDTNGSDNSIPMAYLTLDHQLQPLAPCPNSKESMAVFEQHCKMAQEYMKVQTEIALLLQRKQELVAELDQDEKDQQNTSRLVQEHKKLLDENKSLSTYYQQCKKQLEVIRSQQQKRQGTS
Nature of the assay: Selectivity interaction (KinomeScan (DiscoverX)) EUB0000695a MAP3K7. To be noted: at 100 nM.

Assay [9] addresses Proto-oncogene tyrosine-protein kinase Src (Homo sapiens, UniProt P12931). Nature of the assay: Selectivity interaction (KinomeScan (DiscoverX)) EUB0000618a SRC. To be noted: at 10 µM.
Assay [10] has as its target Tyrosine-protein kinase ABL2 (Homo sapiens, UniProt P42684). Briefly: Selectivity interaction (KinomeScan (DiscoverX)) EUB0000595a ABL2. As to conditions: at 10 µM.
For assay [11], the target named is T3, Histone-lysine N-methyltransferase EHMT2 (Homo sapiens) (UniProt Q96KQ7).
T3 sequence (whole entry): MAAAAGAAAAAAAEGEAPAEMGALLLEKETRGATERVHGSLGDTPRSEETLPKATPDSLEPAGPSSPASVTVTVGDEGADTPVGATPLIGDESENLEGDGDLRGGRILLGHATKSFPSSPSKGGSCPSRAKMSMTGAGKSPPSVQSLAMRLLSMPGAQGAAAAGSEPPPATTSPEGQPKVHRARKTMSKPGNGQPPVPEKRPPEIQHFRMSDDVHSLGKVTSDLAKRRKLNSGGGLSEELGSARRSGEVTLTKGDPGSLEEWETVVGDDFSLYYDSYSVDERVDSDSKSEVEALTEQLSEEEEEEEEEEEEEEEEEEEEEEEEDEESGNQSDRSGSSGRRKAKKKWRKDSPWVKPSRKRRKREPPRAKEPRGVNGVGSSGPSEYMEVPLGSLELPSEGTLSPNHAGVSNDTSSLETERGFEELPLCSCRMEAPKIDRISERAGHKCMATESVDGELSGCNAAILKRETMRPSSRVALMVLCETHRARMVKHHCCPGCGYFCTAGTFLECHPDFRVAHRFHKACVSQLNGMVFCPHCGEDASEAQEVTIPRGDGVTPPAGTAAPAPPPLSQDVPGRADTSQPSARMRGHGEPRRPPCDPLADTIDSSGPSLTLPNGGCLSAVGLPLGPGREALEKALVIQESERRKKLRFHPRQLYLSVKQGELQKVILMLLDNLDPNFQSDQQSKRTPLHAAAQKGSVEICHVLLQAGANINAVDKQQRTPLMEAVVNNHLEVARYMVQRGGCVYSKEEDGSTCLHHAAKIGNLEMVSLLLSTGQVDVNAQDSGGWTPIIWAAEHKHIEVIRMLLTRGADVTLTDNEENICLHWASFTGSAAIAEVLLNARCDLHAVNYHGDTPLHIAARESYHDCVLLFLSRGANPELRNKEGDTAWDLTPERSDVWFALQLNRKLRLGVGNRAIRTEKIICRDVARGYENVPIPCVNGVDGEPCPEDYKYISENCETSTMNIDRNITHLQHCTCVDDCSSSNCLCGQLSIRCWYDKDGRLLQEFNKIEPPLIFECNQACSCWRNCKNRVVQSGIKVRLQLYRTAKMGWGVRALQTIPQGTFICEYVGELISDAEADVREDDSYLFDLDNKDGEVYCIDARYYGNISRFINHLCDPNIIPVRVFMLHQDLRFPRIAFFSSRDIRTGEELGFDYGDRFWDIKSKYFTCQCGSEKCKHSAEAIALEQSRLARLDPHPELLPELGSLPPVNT
Briefly: Selectivity interaction (Methyltransferase screen (radiometric assays, panel of 8 PRMTs, 21 protein lysine methyltransferases, 3 DNA methyltransferases, and one RNA methyltransferase)) EUB0000272b EHMT2.

Chain of Proto-oncogene tyrosine-protein kinase Src (P12931 2-536 limits assumed): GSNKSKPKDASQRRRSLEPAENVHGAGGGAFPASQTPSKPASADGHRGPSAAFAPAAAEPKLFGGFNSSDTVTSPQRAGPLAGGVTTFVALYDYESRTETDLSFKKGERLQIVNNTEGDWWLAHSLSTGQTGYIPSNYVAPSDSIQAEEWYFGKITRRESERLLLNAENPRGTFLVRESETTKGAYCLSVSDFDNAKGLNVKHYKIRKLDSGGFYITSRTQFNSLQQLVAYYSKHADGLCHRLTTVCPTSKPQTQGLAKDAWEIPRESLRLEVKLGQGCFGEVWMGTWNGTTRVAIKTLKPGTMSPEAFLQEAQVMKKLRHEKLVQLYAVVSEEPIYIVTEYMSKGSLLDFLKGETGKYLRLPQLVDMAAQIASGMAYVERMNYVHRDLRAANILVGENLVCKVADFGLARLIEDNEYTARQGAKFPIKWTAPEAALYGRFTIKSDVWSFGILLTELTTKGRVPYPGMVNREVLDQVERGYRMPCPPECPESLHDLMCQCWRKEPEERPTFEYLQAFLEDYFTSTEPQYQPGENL
Chain of ALK tyrosine kinase receptor (Q9UM73 19-1620 limits assumed): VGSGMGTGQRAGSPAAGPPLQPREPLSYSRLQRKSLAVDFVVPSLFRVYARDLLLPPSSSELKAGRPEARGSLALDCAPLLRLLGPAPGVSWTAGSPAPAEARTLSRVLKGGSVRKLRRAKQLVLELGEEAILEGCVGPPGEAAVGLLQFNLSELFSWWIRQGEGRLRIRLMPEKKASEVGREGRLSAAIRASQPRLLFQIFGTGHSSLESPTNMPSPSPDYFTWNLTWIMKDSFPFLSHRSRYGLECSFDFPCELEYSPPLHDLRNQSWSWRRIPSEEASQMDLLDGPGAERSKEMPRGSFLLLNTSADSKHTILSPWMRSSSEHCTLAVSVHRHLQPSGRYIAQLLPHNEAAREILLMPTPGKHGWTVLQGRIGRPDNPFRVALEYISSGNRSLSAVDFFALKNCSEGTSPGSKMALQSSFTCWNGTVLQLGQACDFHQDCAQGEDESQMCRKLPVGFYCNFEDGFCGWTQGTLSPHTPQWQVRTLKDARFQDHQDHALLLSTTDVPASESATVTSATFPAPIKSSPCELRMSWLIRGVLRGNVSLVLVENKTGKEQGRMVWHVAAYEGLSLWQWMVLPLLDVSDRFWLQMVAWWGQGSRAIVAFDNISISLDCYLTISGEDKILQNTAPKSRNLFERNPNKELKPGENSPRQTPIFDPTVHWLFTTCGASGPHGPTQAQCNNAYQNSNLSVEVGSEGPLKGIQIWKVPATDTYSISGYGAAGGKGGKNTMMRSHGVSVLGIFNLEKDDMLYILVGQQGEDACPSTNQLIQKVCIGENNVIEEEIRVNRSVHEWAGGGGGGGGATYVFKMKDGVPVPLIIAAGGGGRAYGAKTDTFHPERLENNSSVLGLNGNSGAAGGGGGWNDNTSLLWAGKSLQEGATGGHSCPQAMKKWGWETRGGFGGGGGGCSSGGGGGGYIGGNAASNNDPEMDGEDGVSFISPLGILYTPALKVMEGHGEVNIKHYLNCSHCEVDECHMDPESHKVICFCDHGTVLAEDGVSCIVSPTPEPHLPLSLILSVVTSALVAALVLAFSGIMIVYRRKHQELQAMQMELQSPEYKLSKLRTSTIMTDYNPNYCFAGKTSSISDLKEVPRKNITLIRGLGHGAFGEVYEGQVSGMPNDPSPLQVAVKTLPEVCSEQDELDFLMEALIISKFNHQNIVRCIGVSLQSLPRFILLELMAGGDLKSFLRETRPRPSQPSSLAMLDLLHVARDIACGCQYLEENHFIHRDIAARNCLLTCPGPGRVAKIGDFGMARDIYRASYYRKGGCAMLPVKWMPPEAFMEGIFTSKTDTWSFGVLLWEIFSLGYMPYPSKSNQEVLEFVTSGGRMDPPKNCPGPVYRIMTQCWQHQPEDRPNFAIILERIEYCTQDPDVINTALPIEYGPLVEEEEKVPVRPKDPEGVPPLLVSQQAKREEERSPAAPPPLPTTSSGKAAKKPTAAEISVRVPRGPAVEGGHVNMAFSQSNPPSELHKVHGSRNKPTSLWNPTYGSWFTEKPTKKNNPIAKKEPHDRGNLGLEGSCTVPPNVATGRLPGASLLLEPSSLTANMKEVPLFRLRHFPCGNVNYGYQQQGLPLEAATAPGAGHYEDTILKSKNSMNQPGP
Chain of Eukaryotic elongation factor 2 kinase (O00418 whole entry): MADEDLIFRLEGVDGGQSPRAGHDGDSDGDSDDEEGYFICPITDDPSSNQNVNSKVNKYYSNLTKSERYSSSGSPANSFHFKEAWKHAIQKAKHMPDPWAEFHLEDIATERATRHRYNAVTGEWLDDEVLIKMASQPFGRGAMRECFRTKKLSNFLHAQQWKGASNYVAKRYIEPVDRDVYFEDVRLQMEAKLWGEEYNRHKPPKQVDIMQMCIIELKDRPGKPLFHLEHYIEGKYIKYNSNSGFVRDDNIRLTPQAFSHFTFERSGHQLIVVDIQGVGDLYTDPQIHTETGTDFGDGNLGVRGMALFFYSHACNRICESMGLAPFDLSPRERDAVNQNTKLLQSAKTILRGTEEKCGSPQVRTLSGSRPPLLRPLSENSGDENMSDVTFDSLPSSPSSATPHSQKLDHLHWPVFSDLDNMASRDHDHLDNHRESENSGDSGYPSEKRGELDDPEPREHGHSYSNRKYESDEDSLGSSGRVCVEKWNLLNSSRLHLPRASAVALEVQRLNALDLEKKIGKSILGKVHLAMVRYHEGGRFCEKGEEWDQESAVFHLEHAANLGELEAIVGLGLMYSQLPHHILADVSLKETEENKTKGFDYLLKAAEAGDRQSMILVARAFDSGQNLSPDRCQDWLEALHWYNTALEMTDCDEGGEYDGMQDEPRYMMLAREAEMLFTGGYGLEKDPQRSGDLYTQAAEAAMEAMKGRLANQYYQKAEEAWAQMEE
Chain of Phosphatidylinositol 4-kinase alpha (P42356 whole entry, looked up): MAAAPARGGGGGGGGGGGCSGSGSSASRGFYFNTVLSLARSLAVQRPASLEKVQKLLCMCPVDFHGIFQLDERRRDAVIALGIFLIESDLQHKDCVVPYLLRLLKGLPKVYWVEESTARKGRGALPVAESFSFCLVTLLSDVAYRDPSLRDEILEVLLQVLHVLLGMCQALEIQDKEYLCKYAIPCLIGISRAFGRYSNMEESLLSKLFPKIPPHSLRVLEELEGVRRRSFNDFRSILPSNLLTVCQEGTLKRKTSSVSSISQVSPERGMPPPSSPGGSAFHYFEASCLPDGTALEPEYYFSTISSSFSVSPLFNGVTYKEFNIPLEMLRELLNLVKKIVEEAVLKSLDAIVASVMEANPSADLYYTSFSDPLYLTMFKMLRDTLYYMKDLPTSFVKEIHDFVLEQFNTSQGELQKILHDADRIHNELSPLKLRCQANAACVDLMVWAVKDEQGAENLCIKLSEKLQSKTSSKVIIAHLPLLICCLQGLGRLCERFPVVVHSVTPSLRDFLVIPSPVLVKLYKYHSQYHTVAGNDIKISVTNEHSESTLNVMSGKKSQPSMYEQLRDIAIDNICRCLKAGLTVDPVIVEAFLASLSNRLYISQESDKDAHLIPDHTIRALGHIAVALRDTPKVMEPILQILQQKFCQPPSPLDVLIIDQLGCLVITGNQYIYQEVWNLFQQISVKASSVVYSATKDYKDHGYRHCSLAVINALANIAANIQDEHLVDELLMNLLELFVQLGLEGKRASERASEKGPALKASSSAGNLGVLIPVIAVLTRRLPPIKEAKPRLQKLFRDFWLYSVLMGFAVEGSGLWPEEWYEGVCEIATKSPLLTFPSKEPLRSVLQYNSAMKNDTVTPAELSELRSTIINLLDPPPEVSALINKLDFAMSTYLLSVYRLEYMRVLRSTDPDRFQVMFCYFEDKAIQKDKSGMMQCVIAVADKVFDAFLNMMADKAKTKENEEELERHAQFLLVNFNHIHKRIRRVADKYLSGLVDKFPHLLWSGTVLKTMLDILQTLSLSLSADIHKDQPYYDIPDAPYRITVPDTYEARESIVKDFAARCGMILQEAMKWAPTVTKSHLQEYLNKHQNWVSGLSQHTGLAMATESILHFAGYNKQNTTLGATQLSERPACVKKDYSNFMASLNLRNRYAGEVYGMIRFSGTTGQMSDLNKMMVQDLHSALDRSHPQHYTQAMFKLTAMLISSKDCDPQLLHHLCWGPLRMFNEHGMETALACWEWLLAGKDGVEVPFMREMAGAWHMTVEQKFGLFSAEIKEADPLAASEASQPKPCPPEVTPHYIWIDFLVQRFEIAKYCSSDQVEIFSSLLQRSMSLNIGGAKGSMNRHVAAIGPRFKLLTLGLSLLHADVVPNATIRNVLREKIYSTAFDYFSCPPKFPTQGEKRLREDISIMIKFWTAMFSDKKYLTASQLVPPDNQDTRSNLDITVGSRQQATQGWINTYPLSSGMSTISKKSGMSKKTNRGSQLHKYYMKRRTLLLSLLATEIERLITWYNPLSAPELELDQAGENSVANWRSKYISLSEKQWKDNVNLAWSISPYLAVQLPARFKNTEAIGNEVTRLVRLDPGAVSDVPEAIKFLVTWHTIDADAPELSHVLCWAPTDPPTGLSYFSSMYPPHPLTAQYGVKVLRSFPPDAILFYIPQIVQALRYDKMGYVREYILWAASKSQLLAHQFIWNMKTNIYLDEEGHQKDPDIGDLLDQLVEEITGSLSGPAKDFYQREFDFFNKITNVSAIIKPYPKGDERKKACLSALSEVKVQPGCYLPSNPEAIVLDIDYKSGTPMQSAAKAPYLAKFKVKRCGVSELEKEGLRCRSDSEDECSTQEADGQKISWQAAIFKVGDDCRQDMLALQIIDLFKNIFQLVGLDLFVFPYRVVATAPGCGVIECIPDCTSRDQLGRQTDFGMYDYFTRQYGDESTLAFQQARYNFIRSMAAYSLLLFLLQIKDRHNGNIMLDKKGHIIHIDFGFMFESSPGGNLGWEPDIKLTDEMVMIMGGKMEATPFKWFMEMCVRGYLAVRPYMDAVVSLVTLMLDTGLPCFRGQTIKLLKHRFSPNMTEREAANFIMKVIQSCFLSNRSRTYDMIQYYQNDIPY

In assay [1], `CN(C)C/C=C/C(=O)Nc1ccc(C(=O)N2CCCC(Nc3ncc(Cl)c(-c4c[nH]c5ccccc45)n3)C2)cc1` (configuration not stated) gave a % of control of 87%.

For the molecule `CNC(=O)Nc1ccc(-c2nc(N3CC4CCC(C3)O4)c3cnn(C4CCC5(CC4)OCCO5)c3n2)cc1`, the % of control in [2] turned out to be 42%. Turning to `CCC(=O)N1CC[C@H](Nc2ncnc3c2CN(c2cnc(OC)c(C(F)(F)F)c2)CC3)C1` [LENIOLISIB], the 50% inhibitory concentration (IC50) in [3] is over 30 µM. In the case of `CC[C@@H]1[C@H](F)C(=O)N[C@@H]1COc1nccc2cc(C(N)=O)c(OC)cc12` [ZIMLOVISERTIB], the % of inhibition in assay [4] is -0.209%.

Consider `CC(=O)Nc1cccc(-n2c(=O)n(C3CC3)c(=O)c3c(Nc4ccc(I)cc4F)n(C)c(=O)c(C)c32)c1`, for which the % of control in [5] turned out to be 112%; in [6], 95%. Take `CCc1cccc(CC)c1NC(=O)c1nn(C)c2c1CCc1cnc(Nc3ccc(C(=O)NC4CCN(C)CC4)cc3OC(F)(F)F)nc1-2`: the IC50 in assay [7] is over 10 µM. `Cc1cc(F)c(C(=O)Nc2cccc(-c3nncn3C(C)C)n2)cc1-n1cnc(C2CC2)c1`: in [8], the % of control was 81%. For the molecule `O[C@H]1CC[C@H](Nc2ncc3nc(Nc4c(F)cc(F)cc4F)n([C@H]4CCOC4)c3n2)CC1`, the % of control in [9] amounted to 72%. `COCC(=O)NC/C=C/c1ccc2ncnc(Nc3ccc(Oc4ccc(C)nc4)c(C)c3)c2c1` [CP-724714] came in with a % of control in assay [10] of 100%. `Cc1cc(C)cc([C@H]2c3cc(C)ccc3NC(=O)CN2C(=O)c2ccc(Br)s2)c1`: the % of activity is 95.7% in assay [11] (at 1 µM) and 98.3% in [11] (at 10 µM).

What is called IC50 is the concentration needed to halve the response being measured.
